Test results published in US20070265245A1, “S-Mirtazapine For The Treatment Of Hot Flush” (N.V. Organon, priority 2004, published 2007).

Legend:
Assay type in all cases: in vivo
[1] = Body weight of treated rats before and after treatment period; conditions: experiment 1, 10 mg/kg i.p., 5 days
Protocol: (§1) Body weights of the rats were determined before and after the treatment period. Data were expressed as mean ±S.E.M. unless otherwise specified. For testing statistical significance the Analysis of Variance (ANOVA) was used. The data were logarithmically transformed to normalize variations. A value of P<0.05 was considered to be significant.

ovariectomized rats [2] = test: Locomotor activity of ovariectomized rats, telemetry; conditions: for locomotor activity (decrease to): from the first treatment onwards, vehicle around 1.2 cpm
Protocol: (§2) The effect of the maleate salt of S-mirtazapine was measured in an animal model for hot flushes. The model is based on the observation that the drop in tail skin temperature at the transition from the rest to the active phase in rats is attenuated after ovariectomy. The locomotor activity of the rats was also measured.
(§3) Tail skin temperature of the rats was measured by use of the telemetry system from Data Sciences International (DSI), a division of Transoma Medical, Inc., USA. This system comprises implantable wireless transmitters (TA10TA-F40 W/TP), receivers (RPC-1 and RLA1020), a data exchange matrix (DEM), and a data acquisition and analysis system (DQ ART 2.2 silver version).
(§4) The S-mirtazapine maleate was dissolved in 0.9% saline with 5% mulgofen. Compound and vehicle were administered intraperitoneally. Sham placebo and ovariectomized(OVX)/placebo groups received 2 ml/kg/day saline and compound treated groups received 10, 30 or 100 mg/kg/day in a volume of 2 ml/kg/day. Here, the indicated amounts refer to the weight of the maleate salt of S-mirtazepine.
(§5) Female rats from the Crl:WU strain, weighing 225-250 g at arrival, were supplied by CPB Harlan, The Netherlands. Rats were housed individually in Macrolon™ cages (38×22×15 cm) with a sawdust bedding and “Enviro Dry™” as cage enrichment. The day after arrival the rats were ovariectomized or sham operated and the transmitter was implanted intraperitoneally under isoflurane aneasthesia. After surgery the rats were placed in a temperature controlled room (21.5±1° C.) with an adapted light/dark cycle (lights off 9:30 h a.m., lights on 7:30 h p.m.). They were allowed to recover from surgery and to adapt to the light/dark cycle for at least 2 weeks. Food and water were given ad libitum.
(§6) Treatment groups were randomized over the OVX groups. The rats were injected intraperitoneally with vehicle or S-mirtazapine maleate once a day at 11:00 a.m. for a period of 5 days. The tail skin temperature and the locomotor activity of the rats were measured every 5 minutes continuously, but the measurements between 12:00 and 02:00 pm (in which period the maximal effect of S-mirtazapine was observed) were used for calculations of the treatment effects. During this period the rats remained completely undisturbed. Before 9:30 am (the time the light turned off) the rats could be taken care of.
as §1
Data were collected for each rat for 7 seconds every 5 minutes during two hours starting one hour after drug administration (11:00 a.m.). The mean tail skin temperature over this 2-h period was calculated for each rat. In addition, the group means were calculated together with the standard error of the mean (SEM). The tail skin temperature is expressed in degrees centigrade (°C.) and locomotor activity in counts per minutes (cpm).
The number of animals in the different test groups varied between 5-8.

ovariectomized rats [3] = test: Tail skin temperature in ovariectomized rats (animal model for hot flushes), telemetry; conditions: for restoration of the attenuation of the OVX-induced drop in tail skin temperature: summary; for TST lower than the sham operated group: from day 2 onwards
Protocol: as §2, §3, §4, §5
The left and right flank and the rear end of the back above the tail implant of the rat were shaved. The rats were anaesthetized with isoflurane (FORENE®/1-chloro-2,2,2,-trifluorethyl-difluoromethyl-ether, Abbott). The operation area was disinfected with Hibicet® (1.5% m/v chloorhexidinedigluconaat and 1.5% m/v cetrimide). The rats were bilateral ovariectomized (OVX) or sham operated. The incision made in the right flank was also used to implant the transmitter in the peritoneal cavity. When closing the abdomen the transmitter was fixed to the abdominal muscles with stitches.
On the back of the rat in height of the hips, a small incision in the skin was made and the thermistor-tipped probe was led to the back of the rat. From here the probe was brought under the skin in the tail to about 2 cm from the base of the tail. The lead was fixed with a stitch at the musculus biceps femoris. To complete the operation the skin was closed with wound clips. Immediately after surgery the rats were treated with the analgesic buprenorphine 50 μg/kg sc (Temgesic®, Schering-Plough).
as §6, §1
Data were collected for each rat for 7 seconds every 5 minutes during two hours starting one hour after drug administration (11:00 a.m.). The mean tail skin temperature over this 2-h period was calculated for each rat. […]

CN1CCN2c3ncccc3Cc3ccccc3[C@H]2C1.O=C(O)/C=C\C(=O)O [S-mirtazapine maleate]
effect on body weight (BW) [1]: no significant effect | locomotor activity (ovariectomized rats [2]; 30 mg/kg, summary, effect not statistically significant): reduced | locomotor activity compared to OVX placebo group (ovariectomized rats [2]; experiment 1, 10 mg/kg i.p.): no significant effect | locomotor activity compared to sham operated placebo group (ovariectomized rats [2]; experiment 1, 10 mg/kg/day i.p., day 3): significant reduction | effect on locomotor activity (ovariectomized rats [2]; experiment 2, 10 mg/kg/day, rest of experiment at level of placebo treated OVX rats): only an effect on locomotor activity after the first treatment | locomotor activity at the end of the treatment period (ovariectomized rats [2]; experiment 2, 30 mg/kg i.p.): about 0.5 cpm | drop in locomotor activity (ovariectomized rats [2]; experiment 2, 30 mg/kg i.p., after 5 days treatment): 50% | locomotor activity (decrease to) (ovariectomized rats [2]; experiment 2, 30 mg/kg i.p.): about 0.5 cpm | locomotor activity at the end of the treatment period (ovariectomized rats [2]; experiment 2, 100 mg/kg i.p.): increased to the level of the vehicle treated rats | locomotor activity (decrease to) (ovariectomized rats [2]; experiment 2, 100 mg/kg i.p.): about 0.5 cpm | locomotor activity after 5 days treatment compared to the OVX placebo group (ovariectomized rats [2]; experiment 2, any dose group (10, 30, 100 mg/kg)): No statistically significant effect | restoration of the attenuation of the OVX-induced drop in tail skin temperature (ovariectomized rats [3]; 10 mg/kg i.p., OVX rats): not | restoration of the attenuation of the OVX-induced drop in tail skin temperature (ovariectomized rats [3]; 30 mg/kg i.p., OVX rats): restored | effect against hot flush (conclusion) (ovariectomized rats [3]; 30 mg/kg in rats): effect against hot flush | effect against hot flush (conclusion) (ovariectomized rats [3]; 100 mg/kg in rats): effect against hot flush | increase in TST after the first treatment day (ovariectomized rats [3]; experiment 1, 10 mg/kg/day i.p., OVX rats): approximately 2 °C | effect on tail skin temperature on day 5 (ovariectomized rats [3]; experiment 1, 10 mg/kg/day i.p., day 5): no effect | TST after the end of treatment (ovariectomized rats [3]; experiment 1, 10 mg/kg/day i.p., all groups returned to normal values for OVX rats): about 29 °C | TST during the treatment period (ovariectomized rats [3]; experiment 1, 10 mg/kg/day i.p., compared to sham/placebo and compared to OVX/placebo at day 4): significantly higher level | tail skin temperature compared to the OVX rats after 5 consecutive days (ovariectomized rats [3]; experiment 2, 10 mg/kg): no effect | increase in TST after the first treatment (ovariectomized rats [3]; experiment 2, 10 mg/kg/day i.p.): 1-3 °C | TST during the treatment period compared to the OVX rats (ovariectomized rats [3]; experiment 2, 10 mg/kg/day i.p., day 2 and 3): significantly higher level | TST after end of treatment (ovariectomized rats [3]; experiment 2, 10 mg/kg/day i.p., returned to normal TST values of OVX rats): 28-29 °C | TST after the end of treatment (ovariectomized rats [3]; experiment 2, 30 mg/kg i.p.): returned to normal values of OVX rats | TST compared to the sham operated group after 5 consecutive days (ovariectomized rats [3]; experiment 2, 30 mg/kg i.p.): statistically significantly below | restoration of the fall in TST (ovariectomized rats [3]; experiment 2, 30 mg/kg i.p.): significantly restored | tail skin temperature compared to the OVX group after 5 consecutive days (ovariectomized rats [3]; experiment 2, 30 mg/kg i.p.): significant decrease | TST versus sham operated placebo group on day 5 (ovariectomized rats [3]; experiment 2, 30 mg/kg i.p., day 5): statistically significantly different | TST lower than the sham operated group (ovariectomized rats [3]; experiment 2, 30 mg/kg i.p.): 2-4 °C | TST after the end of treatment (ovariectomized rats [3]; experiment 2, 100 mg/kg i.p.): stayed up to 2 days after the end of treatment at a lower level | restoration of the fall in TST (ovariectomized rats [3]; experiment 2, 100 mg/kg i.p.): significantly restored | tail skin temperature compared to the OVX group after 5 consecutive days (ovariectomized rats [3]; experiment 2, 100 mg/kg i.p.): significant decrease | TST lower than the sham operated group (ovariectomized rats [3]; experiment 2, 100 mg/kg i.p.): 2-4 °C
